# Test results reported in US10035792B2, “Resorcinol derivative as HSP90 inhibitor” (priority 2015, dated 2018).
# Where two headings read alike, the source gives them in different places.
# Assays:
# [1] = target: HSP90α (Homo sapiens (Human), UniProt P07900); test: Fluorescence polarization (FP) HSP90-alpha target binding assay
# Source text: In the present invention, the method of fluorescence polarization (FP) was used to establish the screening platform for HSP90-alpha inhibitors. The principle based on is to calculate fluorescence polarization values in horizontal and vertical directions by detecting molecular weight changes before and after interaction of fluorescent labeled small molecules with other molecules, in use for correlation analysis. If binding equilibria between the fluorescent labeled small molecule and the macromolecule is established, it moves slowly when excited, and the fluorescence polarization values measured will increase. If the fluorescent labeled small molecule binding to the macromolecule is replaced with other ligands, its rotational or inversional speed in free state will become faster, the emitted light would be depolarized with respect to the exciting light plane, and thus the polarized light value measured will decrease, so as to calculate the polarization value of the sample (the unit of polarization value is mP).
# The fluorescent labeled small molecule used in the present invention was VER-00051001 (synthesized by reference to the synthetic method described in JMC, 2008, 51, 196-218). The reaction was carried out in a 384-well black plate, using the reaction hydrophobic protein HFB buffer: 100 mM Tris.Cl pH 7.4, 20 mM KCl, 6 mM MgCl2, 5 μg/mL BSA, 25 nM full-length Hsp90U, 10 nM VER-51001. The volume of the reaction system was […], containing 5 nM GM-BODIPY (geldanamycin), 30 nM HSP90 and the test small molecular compound or DMSO (dimethyl sulfoxide), wherein the DMSO content was 2% o. Additional two group wells were established, wherein the wells only added with HFB buffer were used as blank controls, and the wells further added with 5 nM GM-BODIPY were used as negative controls. The reaction was carried out at 4° C. for 12-16 hours. The mP value was measured by Biotek microplate reader at 485 nm of excitation wavelength and 535 nm of emission wavelength. The inhibition rate was calculated using the following equation: (Compound-free mP−Compound mP)/(Compound-free mP−negative control mP)×100%
# [2] = test system: human lung cancer cell line A549; test: Tumor cell growth inhibition, SRB staining, A549; type: cell-based; settings: A549, 72 h
# Method: The growth inhibition assay of tumor cells was detected by sulforhodamine B (SRB) staining method. The specific steps were as follows: inoculating human colon cancer cell line HCT116 and human lung cancer cell line A549 (purchased from American Type Culture Collection, ATCC) at the logarithmic growth phase into a 96-well micro culture plate at an appropriate concentration of 4000 cells/well, 100 μL for each well; after culturing overnight, adding with the compound at different concentrations (100, 10, 1, 0.1, 0.01 μM) to react for 72 h, wherein triplicate wells were set up for each concentration, and solvent control wells with the corresponding concentration and zero wells without cells were also set up. After the completion of the reaction, the culture medium was removed from the adherent cells, the later was added with 10% (w/v) trichloroacetic acid (100 μL/well) at 4° C. to fix for 1 h, and then washed five times with distilled water. After drying at room temperature, 100 μL of SRB solution (4 mg/mL, dissolved in 1% glacial acetic acid) was added into each well, followed by incubation and staining for 15 min at room temperature. The uncombined SRB was removed by washing five times with 1% glacial acetic acid. After drying at room temperature, 100 μL of 10 mM Tris solution was added into each well, and the optical density (OD) at 515 nm was measured by a […] microplate reader. The inhibition rate of the drug to tumor cell growth was calculated according to the following equation: Inhibition rate (%)=(OD of control well-OD of drug well)/OD of control well×100%. The experiment was repeated twice.
# [3] = fluorescence polarization, read-out: Target binding ability HSP90α FP IC50
Structure (SMILES),"IC50 [1, 3] [nM]",EC50 [2] [nM],IC50 [1] [nM]
"CCc1cnc(-c2noc(-c3cc(C(C)C)c(O)cc3O)c2-c2ccc3c(c2)CCN(C)C3)[nH]1 [Example 16, 4-(3-(5-ethyl-1H-imidazol-2-yl)-4-(2-methyl-1,2,3,4-tetrahydroisoquinolin-6-yl)isoxazol-5-yl)-6-isopropylbenzene-1,3-diol]",20 to 100,< 20,–
"CC(C)c1cc(-c2noc(C(N)=O)c2-c2ccc3c(c2)CCN(C)C3)c(O)cc1O [Example 61, 3-(2,4-dihydroxyl-5-isopropylphenyl)-4-(2-methyl-1,2,3,4-tetrahydroisoquinolin-6-yl)isoxazol-5-carboxamide]",< 20,< 20,–
"CCNC(=O)c1noc(-c2cc(C(C)C)c(O)cc2O)c1-c1ccc2c(c1)C1CCC2N1C (stereo not shown) [Example 5, 5-(2,4-dihydroxyl-5-isopropylphenyl)-N-ethyl-4-(9-methyl-1,2,3,4-tetrahydro-1,4-epiminonaphth-6-yl)isoxazole-3-carboxamide]",–,< 20,20 to 100
"CCNC(=O)c1onc(-c2cc(C(C)C)c(O)cc2O)c1-c1ccc2c(c1)CCN(C)C2 [Example 12, 3-(2,4-dihydroxyl-5-isopropylphenyl)-N-ethyl-4-(2-methyl-1,2,3,4-tetrahydroisoquinolin-6-yl)isoxazole-5-carboxamide]",< 20,< 20,–
"CCNC(=O)c1noc(-c2cc(C(C)C)c(O)cc2O)c1-c1ccc2c(c1)CCN(CC(=O)N(C)C)C2 [Example 55, 5-(2,4-dihydroxyl-5-isopropylphenyl)-4-(2-(2-(dimethylamino)-2-oxoethyl)-1,2,3,4-tetrahydroisoquinolin-6-yl)-N-ethylisoxazole-3-carboxamide]",20 to 100,> 100,–
CCNC(=O)c1onc(-c2cc(C(C)C)c(O)cc2O)c1-c1ccc2c(c1)CCN(CCF)C2 [Example 71],< 20,< 20,–
"CCNC(=O)c1noc(-c2cc(C(C)C)c(O)cc2O)c1-c1cc2c(s1)CCN(C)CC2 [Example 22, 5-(2,4-dihydroxyl-5-isopropylphenyl)-N-ethyl-4-(6-methyl-5,6,7,8-tetrahydro-4H-thieno[2,3-d]azepin-2-yl) isoxazole-3-carboxamide]",< 20,20 to 100,–
"CC(C)c1cc(-c2onc(C(=O)NCC(F)(F)F)c2-c2ccc3c(c2)CCN(C)C3)c(O)cc1O [Example 39, 5-(2,4-dihydroxyl-5-isopropylphenyl)-N-(2,2,2-trifluoroethyl)-4-(2-methyl-1,2,3,4-tetrahydroisoquinolin-6-yl)isoxazole-3-carboxamide]",20 to 100,20 to 100,–
"CCNC(=O)c1noc(-c2cc(C(C)C)c(O)cc2O)c1-c1ccc2c(c1)CCN(C(=O)CN1CCOCC1)C2 [Example 60, 5-(2,4-dihydroxyl-5-isopropylphenyl)-N-ethyl-4-(2-(2-morpholino-4-yl-acetyl)-1,2,3,4-tetrahydroisoquinolin-6-yl)isoxazole-3-carboxamide]",20 to 100,> 100,–
"CC(C)NC(=O)c1onc(-c2cc(C(C)C)c(O)cc2O)c1-c1ccc2c(c1)CCN(C)C2 [Example 63, 3-(2,4-dihydroxyl-5-isopropylphenyl)-N-isopropyl-4-(2-methyl-1,2,3,4-tetrahydroisoquinolin-6-yl)isoxazole-5-carboxamide]",< 20,< 20,–
"CCNC(=O)c1noc(-c2cc(C(C)C)c(O)cc2O)c1-c1cc2n(c1)CCN(C)C2 [Example 23, 5-(2,4-dihydroxyl-5-isopropylphenyl)-N-ethyl-4-(2-methyl-1,2,3,4-tetrahydropyrrolo[1,2-a]pyrazin-7-yl)isoxazole-3-carboxamide]",< 20,20 to 100,–
"Cc1nnc(-c2noc(-c3cc(C(C)C)c(O)cc3O)c2-c2ccc3c(c2)CCN(C)C3)[nH]1 [Example 15, 4-isopropyl-6-[4-(2-methyl-1,2,3,4-tetrahydroisoquinolin-6-yl)-3-(5-methyl-4H-1,2,4-triazol-3-yl)isoxazol-5-yl]benzene-1,3-diol]",20 to 100,> 100,–

# More lines, main results first:
"IC50 [1, 3] [nM]",EC50 [2] [nM],Structure (SMILES),IC50 [1] [nM]
< 20,20 to 100,CCNC(=O)c1onc(-c2cc(C(C)C)c(O)cc2O)c1-c1ccc2c(c1)CCN(CCOC)C2 [Example 70],–
20 to 100,20 to 100,"CCNC(=O)c1noc(-c2cc(C(C)C)c(O)cc2O)c1-c1nc2c(n1C)CCN(CC(C)C)C2 [Example 24, 5-(2,4-dihydroxyl-5-isopropylphenyl)-N-ethyl-4-(5-isobutyl-1-methyl-4,5,6,7-tetrahydro-1H-imidazo[4,5-c]pyridin-2-yl)isoxazole-3-carboxamide]",–
< 20,20 to 100,"CCNC(=O)c1noc(-c2cc(C(C)C)c(O)cc2O)c1-c1ccc2c(c1)CCN(CCO)C2 [Example 44, 5-(2,4-dihydroxyl-5-isopropylphenyl)-N-ethyl-4-(2-(2-hydroxyethyl)-1,2,3,4-tetrahydroisoquinolin-6-yl)isoxazole-3-carboxamide]",–
20 to 100,> 100,"CCNC(=O)c1noc(-c2cc(C(C)C)c(O)cc2O)c1-c1ccc2c(c1)CCN(C(=O)CCN(C)C)C2 [Example 57, 5-(2,4-dihydroxyl-5-isopropylphenyl)-4-(2-(3-(dimethylamino)propionyl)-1,2,3,4-tetrahydroisoquinolin-6-yl)-N-ethylisoxazole-3-carboxamide]",–
20 to 100,> 100,"CCNC(=O)c1noc(-c2cc(C(C)C)c(O)cc2O)c1-c1ccc2c(c1)CCN(C(=O)CCN1CCOCC1)C2 [Example 58, 5-(2,4-dihydroxyl-5-isopropylphenyl)-N-ethyl-4-(2-(3-morpholino-4-yl-propionyl)-1,2,3,4-tetrahydroisoquinolin-6-yl)isoxazole-3-carboxamide]",–
20 to 100,> 100,"CCNC(=O)c1noc(-c2cc(CC(C)C)c(O)cc2O)c1-c1ccc2c(c1)CCN(C)C2 [Example 33, 5-(5-isobutyl-2,4-dihydroxyl-phenyl)-N-ethyl-4-(2-methyl-1,2,3,4-tetrahydroisoquinolin-6-yl)isoxazole-3-carboxamide]",–
20 to 100,20 to 100,"CCNC(=O)c1noc(-c2cc(C(C)C)c(O)cc2O)c1-c1nc2c(s1)CCN(C)C2 [Example 10, 5-(2,4-dihydroxyl-5-isopropyl-phenyl)-N-ethyl-4-(5-methyl-4,5,6,7-tetrahydrothiazolo[4,5-c]pyridin-2-yl)isoxazole-3-carboxamide]",–
< 20,< 20,"CCNC(=O)c1onc(-c2cc(C(C)C)c(O)cc2O)c1-c1ccc2c(c1)CCN(C)CC2 [Example 27, 3-(2,4-dihydroxyl-5-isopropylphenyl)-N-ethyl-4-(3-methyl-2,3,4,5-tetrahydro-1H-benzo[d]azepin-7-yl)isoxazole-5-carboxamide]",–
< 20,< 20,"CC(C)c1cc(-c2onc(C(=O)NCCF)c2-c2ccc3c(c2)CCN(C)C3)c(O)cc1O [Example 40, 5-(2,4-dihydroxyl-5-isopropylphenyl)-N-(2-fluoroethyl)-4-(2-methyl-1,2,3,4-tetrahydroisoquinolin-6-yl)isoxazole-3-carboxamide]",–
20 to 100,> 100,"CC(C)c1cc(-c2onc(C(=O)NCCN(C)C)c2-c2ccc3c(c2)CCN(C)C3)c(O)cc1O [Example 43, 5-(2,4-dihydroxyl-5-isopropylphenyl)-N-[2-(dimethylamino)ethyl]-4-(2-methyl-1,2,3,4-tetrahydroisoquinolin-6-yl)isoxazole-3-carboxamide]",–
20 to 100,> 100,"CCNC(=O)c1noc(-c2cc(Cl)c(O)cc2O)c1-c1ccc2c(c1)CCN(C)C2 [Example 31, 5-(2,4-dihydroxyl-5-chloro-phenyl)-N-ethyl-4-(2-methyl-1,2,3,4-tetrahydroisoquinolin-6-yl)isoxazole-3-carboxamide]",–
